In patent publication US7759331B2, “Pyridine-containing macroheterococylic compounds as kinase inhibitors” (Janssen Pharmaceutica NV, priority 2006, dated 2010):

Tests used:
Assay in all cases: Protein kinase selectivity panel
Type in all cases: biochemical
Conditions in all cases: 1.0 μM compound, 10 μM ATP
ALK(h) = ALK(h) (Homo sapiens, UniProt Q9UM73)
Procedure, shortened: (§1)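 Single-point screen: compound 1.0 μM; ATP 10 μM; peptide/protein substrate matched to each kinase; reaction linear in time.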

Abl(m) = Abl(m) (Mus musculus, UniProt P00520)
Sequence of Abl(m) (P00520 whole entry): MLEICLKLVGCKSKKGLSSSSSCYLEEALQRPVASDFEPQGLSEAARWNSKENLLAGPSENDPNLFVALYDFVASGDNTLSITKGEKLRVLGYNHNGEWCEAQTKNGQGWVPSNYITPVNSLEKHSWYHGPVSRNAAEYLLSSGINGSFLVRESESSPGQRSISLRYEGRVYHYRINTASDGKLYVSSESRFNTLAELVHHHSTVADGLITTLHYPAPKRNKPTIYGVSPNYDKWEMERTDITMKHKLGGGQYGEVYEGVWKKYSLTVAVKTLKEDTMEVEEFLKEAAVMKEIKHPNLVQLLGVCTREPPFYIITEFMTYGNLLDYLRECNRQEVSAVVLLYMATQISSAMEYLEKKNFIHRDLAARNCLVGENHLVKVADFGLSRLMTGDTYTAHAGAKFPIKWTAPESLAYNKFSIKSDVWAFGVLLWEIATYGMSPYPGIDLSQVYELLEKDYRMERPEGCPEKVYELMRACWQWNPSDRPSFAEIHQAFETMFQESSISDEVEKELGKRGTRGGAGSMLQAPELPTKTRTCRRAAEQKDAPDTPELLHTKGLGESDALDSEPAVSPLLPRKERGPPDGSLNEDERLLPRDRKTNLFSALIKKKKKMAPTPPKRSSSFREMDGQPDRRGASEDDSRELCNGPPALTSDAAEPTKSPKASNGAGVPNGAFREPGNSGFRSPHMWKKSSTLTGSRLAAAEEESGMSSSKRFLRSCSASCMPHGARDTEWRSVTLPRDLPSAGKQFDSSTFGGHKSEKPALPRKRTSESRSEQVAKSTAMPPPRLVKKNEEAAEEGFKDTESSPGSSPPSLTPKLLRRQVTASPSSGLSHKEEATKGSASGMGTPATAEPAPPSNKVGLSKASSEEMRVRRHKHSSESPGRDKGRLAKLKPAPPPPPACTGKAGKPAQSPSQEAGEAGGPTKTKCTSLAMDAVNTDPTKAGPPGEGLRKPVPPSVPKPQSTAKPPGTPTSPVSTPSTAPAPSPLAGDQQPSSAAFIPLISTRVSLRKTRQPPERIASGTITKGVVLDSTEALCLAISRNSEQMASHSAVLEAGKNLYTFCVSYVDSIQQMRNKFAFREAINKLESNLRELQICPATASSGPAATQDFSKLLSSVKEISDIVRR
Procedure, shortened: as §1

Bmx(h) = molecular target: T1, Bmx(h) (Homo sapiens, UniProt P51813)
T1 sequence (P51813 1-675): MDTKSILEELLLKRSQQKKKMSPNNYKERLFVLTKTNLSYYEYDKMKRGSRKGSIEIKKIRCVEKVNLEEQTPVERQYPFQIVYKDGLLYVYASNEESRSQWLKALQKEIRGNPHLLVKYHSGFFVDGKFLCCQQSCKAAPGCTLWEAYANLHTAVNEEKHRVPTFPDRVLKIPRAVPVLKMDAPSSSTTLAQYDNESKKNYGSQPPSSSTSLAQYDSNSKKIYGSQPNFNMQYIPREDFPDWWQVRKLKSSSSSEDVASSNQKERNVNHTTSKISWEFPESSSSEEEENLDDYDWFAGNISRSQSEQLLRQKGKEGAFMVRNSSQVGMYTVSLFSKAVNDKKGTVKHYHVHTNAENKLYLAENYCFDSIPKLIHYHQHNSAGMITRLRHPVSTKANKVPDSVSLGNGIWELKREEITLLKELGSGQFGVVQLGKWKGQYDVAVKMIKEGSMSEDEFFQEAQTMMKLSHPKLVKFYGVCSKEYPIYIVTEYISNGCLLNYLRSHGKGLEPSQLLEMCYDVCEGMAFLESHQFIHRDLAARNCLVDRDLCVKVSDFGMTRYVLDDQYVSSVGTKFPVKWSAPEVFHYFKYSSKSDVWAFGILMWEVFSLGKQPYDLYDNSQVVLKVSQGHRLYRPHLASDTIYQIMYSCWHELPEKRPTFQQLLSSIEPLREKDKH
Procedure, shortened: as §1

JNK3(h) = JNK3(h) (Homo sapiens, UniProt P53779)
Procedure, shortened: as §1

MEK1(h) = MEK1(h) (Homo sapiens, UniProt Q02750)
Sequence of MEK1(h) (Q02750 whole entry): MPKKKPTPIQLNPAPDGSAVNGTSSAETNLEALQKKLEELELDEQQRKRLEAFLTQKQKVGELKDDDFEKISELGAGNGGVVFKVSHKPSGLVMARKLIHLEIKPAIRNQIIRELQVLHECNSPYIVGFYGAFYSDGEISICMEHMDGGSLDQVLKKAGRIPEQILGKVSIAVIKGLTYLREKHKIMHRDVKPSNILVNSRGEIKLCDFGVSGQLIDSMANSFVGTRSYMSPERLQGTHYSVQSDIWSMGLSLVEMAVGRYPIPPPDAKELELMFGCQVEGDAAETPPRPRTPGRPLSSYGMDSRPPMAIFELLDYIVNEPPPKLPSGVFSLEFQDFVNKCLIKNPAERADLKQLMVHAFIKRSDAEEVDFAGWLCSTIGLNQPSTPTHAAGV
Procedure, shortened: as §1

MST2(h) = molecular target: T2, MST2(h) (Homo sapiens, UniProt Q13188)
T2 sequence (Q13188 1-491): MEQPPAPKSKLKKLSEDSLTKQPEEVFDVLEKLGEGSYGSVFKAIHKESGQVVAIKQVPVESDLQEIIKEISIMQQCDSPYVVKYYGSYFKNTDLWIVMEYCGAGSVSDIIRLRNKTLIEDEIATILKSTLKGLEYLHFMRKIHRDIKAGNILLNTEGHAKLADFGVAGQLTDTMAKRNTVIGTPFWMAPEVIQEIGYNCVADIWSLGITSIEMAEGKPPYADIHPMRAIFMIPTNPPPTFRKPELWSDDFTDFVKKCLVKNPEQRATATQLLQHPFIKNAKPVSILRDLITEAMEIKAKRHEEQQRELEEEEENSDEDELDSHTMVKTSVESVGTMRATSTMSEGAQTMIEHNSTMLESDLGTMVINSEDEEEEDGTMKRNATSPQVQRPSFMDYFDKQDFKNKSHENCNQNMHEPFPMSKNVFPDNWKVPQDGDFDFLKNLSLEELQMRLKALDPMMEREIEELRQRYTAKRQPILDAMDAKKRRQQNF
Procedure, shortened: as §1

PDGFRβ(h) = PDGFRβ(h) (Homo sapiens, UniProt P09619)
Procedure, shortened: as §1

PKCβII(h) = PKCβII(h) (Homo sapiens, UniProt P05771)
Sequence of PKCβII(h) (P05771 1-673 isoform P05771-2): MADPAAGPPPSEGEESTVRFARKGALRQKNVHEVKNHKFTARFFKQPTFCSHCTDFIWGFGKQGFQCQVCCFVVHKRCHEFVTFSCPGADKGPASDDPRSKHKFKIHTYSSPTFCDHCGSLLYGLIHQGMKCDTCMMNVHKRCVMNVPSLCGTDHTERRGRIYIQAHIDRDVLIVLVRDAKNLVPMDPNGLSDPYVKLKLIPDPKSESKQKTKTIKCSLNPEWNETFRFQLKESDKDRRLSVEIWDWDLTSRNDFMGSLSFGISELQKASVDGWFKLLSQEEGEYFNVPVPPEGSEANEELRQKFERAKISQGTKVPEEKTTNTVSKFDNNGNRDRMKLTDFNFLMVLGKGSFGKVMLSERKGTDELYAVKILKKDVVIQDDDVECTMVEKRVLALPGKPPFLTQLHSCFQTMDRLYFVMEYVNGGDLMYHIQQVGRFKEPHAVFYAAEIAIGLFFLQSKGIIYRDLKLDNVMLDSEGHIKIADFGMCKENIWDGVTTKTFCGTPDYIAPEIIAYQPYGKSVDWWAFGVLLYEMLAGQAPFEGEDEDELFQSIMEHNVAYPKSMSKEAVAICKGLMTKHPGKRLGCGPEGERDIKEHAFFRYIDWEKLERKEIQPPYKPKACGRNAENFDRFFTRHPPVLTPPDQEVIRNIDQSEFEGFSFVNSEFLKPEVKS
Procedure, shortened: as §1

PKCγ(h) = PKCγ(h) (Homo sapiens, UniProt P05129)
Procedure, shortened: as §1

Rsk2(h) = Rsk2(h) (Homo sapiens, UniProt P51812)
Sequence of Rsk2(h) (P51812 whole entry): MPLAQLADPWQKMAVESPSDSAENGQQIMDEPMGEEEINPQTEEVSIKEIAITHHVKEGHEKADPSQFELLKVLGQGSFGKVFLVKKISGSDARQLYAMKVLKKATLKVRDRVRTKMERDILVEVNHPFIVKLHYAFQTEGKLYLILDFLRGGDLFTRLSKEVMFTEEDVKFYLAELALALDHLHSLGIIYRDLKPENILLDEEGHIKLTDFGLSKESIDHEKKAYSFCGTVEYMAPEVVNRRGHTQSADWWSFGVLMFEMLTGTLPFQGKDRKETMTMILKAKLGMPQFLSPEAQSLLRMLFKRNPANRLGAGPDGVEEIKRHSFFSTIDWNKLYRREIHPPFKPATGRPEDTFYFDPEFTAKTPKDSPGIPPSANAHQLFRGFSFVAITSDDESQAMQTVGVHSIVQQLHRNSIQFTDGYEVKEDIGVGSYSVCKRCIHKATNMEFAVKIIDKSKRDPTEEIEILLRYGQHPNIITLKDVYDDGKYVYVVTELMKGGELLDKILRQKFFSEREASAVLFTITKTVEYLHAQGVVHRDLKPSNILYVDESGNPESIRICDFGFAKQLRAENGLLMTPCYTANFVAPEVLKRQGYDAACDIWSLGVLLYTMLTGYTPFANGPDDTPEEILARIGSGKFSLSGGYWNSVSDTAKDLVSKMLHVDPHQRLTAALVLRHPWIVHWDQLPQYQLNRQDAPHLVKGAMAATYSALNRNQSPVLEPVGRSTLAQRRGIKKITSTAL
Procedure, shortened: as §1

Yes(h) = molecular target: T3, Yes(h) (Homo sapiens, UniProt P07947)
T3 construct: purchased Upstate Cell Signaling Solutions (KinaseProfiler Selectivity Screening Service)
T3 sequence (P07947 whole entry): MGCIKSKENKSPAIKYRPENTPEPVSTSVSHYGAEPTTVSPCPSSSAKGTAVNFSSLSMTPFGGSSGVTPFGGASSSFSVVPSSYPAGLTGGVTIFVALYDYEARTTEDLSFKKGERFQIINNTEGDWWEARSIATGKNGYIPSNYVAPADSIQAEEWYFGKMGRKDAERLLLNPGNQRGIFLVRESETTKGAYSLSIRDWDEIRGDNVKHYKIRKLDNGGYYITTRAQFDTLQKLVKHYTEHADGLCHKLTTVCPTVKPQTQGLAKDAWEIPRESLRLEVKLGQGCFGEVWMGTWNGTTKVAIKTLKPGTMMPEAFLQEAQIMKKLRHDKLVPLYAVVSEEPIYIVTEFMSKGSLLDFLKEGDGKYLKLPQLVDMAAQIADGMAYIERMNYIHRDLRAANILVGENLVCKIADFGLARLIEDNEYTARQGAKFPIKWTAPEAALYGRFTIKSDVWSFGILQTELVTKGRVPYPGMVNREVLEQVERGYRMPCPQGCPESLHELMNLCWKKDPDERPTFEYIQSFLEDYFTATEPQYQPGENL
Procedure, shortened: as §1

ZAP-70(h) = molecular target: T4, ZAP-70(h) (Homo sapiens, UniProt P43403)
T4 construct: purchased Upstate Cell Signaling Solutions (KinaseProfiler Selectivity Screening Service)
T4 sequence (P43403 1-619): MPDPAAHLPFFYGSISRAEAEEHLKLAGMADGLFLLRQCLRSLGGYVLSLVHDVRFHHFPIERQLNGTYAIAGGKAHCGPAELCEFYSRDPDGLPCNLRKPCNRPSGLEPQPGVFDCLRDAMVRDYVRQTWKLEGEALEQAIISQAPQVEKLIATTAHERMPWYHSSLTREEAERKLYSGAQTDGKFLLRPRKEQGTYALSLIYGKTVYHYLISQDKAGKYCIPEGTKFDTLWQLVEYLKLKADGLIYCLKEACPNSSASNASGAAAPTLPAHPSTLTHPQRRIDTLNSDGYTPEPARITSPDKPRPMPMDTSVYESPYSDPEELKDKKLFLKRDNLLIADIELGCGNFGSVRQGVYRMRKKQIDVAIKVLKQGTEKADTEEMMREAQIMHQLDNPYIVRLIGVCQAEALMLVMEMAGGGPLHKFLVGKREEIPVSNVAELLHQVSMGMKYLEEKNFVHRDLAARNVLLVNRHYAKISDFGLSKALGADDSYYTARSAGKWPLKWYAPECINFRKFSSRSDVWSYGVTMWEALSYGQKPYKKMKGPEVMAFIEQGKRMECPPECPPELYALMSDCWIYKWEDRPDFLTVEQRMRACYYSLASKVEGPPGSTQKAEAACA
Procedure, shortened: as §1

Sequence of ALK(h) (Q9UM73 19-1620): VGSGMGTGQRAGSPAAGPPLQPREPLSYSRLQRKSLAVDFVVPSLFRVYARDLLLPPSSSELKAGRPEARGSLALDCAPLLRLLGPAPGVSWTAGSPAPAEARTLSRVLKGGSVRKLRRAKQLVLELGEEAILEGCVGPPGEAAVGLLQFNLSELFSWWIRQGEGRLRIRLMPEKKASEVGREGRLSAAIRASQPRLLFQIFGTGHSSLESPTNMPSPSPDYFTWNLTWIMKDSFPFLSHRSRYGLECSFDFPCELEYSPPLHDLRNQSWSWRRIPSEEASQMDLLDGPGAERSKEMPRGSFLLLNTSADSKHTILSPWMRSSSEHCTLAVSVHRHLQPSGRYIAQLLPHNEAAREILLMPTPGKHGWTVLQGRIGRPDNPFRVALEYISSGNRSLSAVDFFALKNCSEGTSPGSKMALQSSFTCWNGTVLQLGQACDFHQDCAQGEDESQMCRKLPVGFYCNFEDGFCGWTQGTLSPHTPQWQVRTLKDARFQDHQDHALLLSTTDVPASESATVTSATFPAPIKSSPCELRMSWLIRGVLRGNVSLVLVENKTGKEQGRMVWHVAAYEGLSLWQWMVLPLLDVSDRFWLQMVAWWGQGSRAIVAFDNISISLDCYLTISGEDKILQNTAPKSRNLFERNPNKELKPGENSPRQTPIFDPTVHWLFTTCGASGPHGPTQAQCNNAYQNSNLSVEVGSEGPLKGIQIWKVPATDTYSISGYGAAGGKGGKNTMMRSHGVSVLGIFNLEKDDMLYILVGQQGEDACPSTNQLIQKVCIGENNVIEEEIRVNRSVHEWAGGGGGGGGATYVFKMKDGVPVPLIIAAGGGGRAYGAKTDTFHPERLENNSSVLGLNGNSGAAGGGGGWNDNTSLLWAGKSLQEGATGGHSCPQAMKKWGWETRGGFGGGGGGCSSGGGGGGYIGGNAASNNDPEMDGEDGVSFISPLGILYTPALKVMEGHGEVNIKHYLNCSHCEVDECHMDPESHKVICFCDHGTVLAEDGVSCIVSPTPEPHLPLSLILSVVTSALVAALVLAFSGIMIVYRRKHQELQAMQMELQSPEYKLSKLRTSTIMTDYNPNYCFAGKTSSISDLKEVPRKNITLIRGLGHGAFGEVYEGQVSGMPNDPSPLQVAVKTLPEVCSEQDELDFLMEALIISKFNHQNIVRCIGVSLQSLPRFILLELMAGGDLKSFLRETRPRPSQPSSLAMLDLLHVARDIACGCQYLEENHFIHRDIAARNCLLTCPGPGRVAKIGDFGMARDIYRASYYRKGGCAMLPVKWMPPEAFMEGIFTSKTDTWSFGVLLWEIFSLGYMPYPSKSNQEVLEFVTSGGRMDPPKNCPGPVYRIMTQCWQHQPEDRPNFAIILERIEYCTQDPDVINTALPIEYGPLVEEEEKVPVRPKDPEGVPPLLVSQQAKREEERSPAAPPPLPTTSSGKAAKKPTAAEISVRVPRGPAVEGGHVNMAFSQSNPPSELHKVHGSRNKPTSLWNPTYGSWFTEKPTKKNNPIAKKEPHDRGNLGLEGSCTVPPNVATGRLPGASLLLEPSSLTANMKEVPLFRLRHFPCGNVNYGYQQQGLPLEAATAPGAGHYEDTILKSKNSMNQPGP

Row | SMILES | Activity at Protein Kinase Assays (% of control), ALK(h) (ALK(h)) | Activity at Protein Kinase Assays (% of control), Abl(m) (Abl(m)) | Activity at Protein Kinase Assays (% of control), Bmx(h) (Bmx(h)) | Activity at Protein Kinase Assays (% of control), JNK3(h) (JNK3(h)) | Activity at Protein Kinase Assays (% of control), MEK1(h) (MEK1(h)) | Activity at Protein Kinase Assays (% of control), MST2(h) (MST2(h)) | Activity at Protein Kinase Assays (% of control), PDGFRβ(h) (PDGFRβ(h)) | Activity at Protein Kinase Assays (% of control), PKCβII(h) (PKCβII(h)) | Activity at Protein Kinase Assays (% of control), PKCγ(h) (PKCγ(h)) | Activity at Protein Kinase Assays (% of control), Rsk2(h) (Rsk2(h)) | Activity at Protein Kinase Assays (% of control), Yes(h) (Yes(h)) | Activity at Protein Kinase Assays (% of control), ZAP-70(h) (ZAP-70(h))
1 | CN(C)c1nc2ccc1CCCCn1cc(c3ccccc31)C1=C(C(=O)NC1=O)c1cn(c3ccccc13)CCC2 [Cpd 1, 31-(dimethylamino)-5,15,25,32-tetraazaheptacyclo[28.2.2.1^5,12.1^18,25.0^6,11.0^13,17.0^19,24]hexatriaconta-1(32),6,8,10,12(36),13(17),18(35),19,21,23,30,33-dodecaene-14,16-dione] | 103 % of control | 98 % of control | 101 % of control | 96 % of control | 76 % of control | 103 % of control | 147 % of control | 64 % of control | 91 % of control | 32 % of control | 96 % of control | 113 % of control
2 | CN(C)c1cc2cc(n1)CCCn1cc(c3ccccc31)C1=C(C(=O)NC1=O)c1cn(c3ccccc13)CCC2 [Cpd 2, 20-(dimethylamino)-4,14,19,26-tetraazaheptacyclo[24.6.1.1^7,14.1^18,22.0^2,6.0^8,13.0^27,32]pentatriaconta-1(33),2(6),7(35),8,10,12,18(34),19,21,27,29,31-dodecaene-3,5-dione] | 55 % of control | 108 % of control | 159 % of control | 107 % of control | 93 % of control | 84 % of control | 101 % of control | 68 % of control | 107 % of control | 10 % of control | 79 % of control | 103 % of control
3 | O=C1NC(=O)C2=C1c1cn(c3ccccc13)CCCc1cc(nc(N3CCCC3)c1)CCCn1cc2c2ccccc21 [Cpd 6, 20-pyrrolidin-1-yl-4,14,19,26-tetraazaheptacyclo[24.6.1.1^7,14.1^18,22.0^2,6.0^8,13.0^27,32]pentatriaconta-1(33),2(6),7(35),8,10,12,18(34),19,21,27,29,31-dodecaene-3,5-dione] | 58 % of control | 104 % of control | 173 % of control | 103 % of control | 91 % of control | 100 % of control | 103 % of control | 74 % of control | 99 % of control | 12 % of control | 58 % of control | 115 % of control
4 | O=C1NC(=O)C2=C1c1cn(c3ccccc13)CCCc1ccc(c(N3CCCC3)n1)CCCn1cc2c2ccccc21 [Cpd 7, 31-pyrrolidin-1-yl-5,15,25,30-tetraazaheptacyclo[27.2.2.1^5,12.1^18,25.0^6,11.0^13,17.0^19,24]pentatriaconta-1(31),6,8,10,12(35),13(17),18(34),19,21,23,29,32-dodecaene-14,16-dione] | 74 % of control | 110 % of control | 176 % of control | 102 % of control | 98 % of control | 86 % of control | 105 % of control | 77 % of control | 102 % of control | 63 % of control | 43 % of control | 121 % of control
